Legend:
TrkB = molecular target: T1, TrkB (Homo sapiens, UniProt Q16620); assay: TrkB tyrosine kinase inhibition, recombinant enzyme, polyGluTyr phosphorylation (33P-ATP filter assay); type: biochemical; settings: kinase domain of human TrkB (amino acids 526-838), His-fusion; 0.1 mg/ml PGT, 30 uM ATP, 1 hour at 30° C.
T1 construct: The kinase domain of the human TrkB receptor (amino acids 526-838); His; purchased Invitrogen; host or cells: insect cells
Method: The ability of compounds of the invention to inhibit tyrosine kinase activity of TrkB may be measured using a recombinant enzyme in an assay that measures the ability of compounds to inhibit the phosphorylation of the exogenous substrate, polyGluTyr (PGT, 4:1). The kinase domain of the human TrkB receptor (amino acids 526-838) is expressed in insect cells as a histidine (His)-fusion protein and is commercially available from Invitrogen™. The enzyme assay is performed in a 96-well plate. Test compounds are first dissolved in dimethylsulfoxide (DMSO) and then serially-diluted in a 96-well plate. The serially-diluted compounds are transferred to the 96-well assay plate so that the final concentration of DMSO in the enzyme assay is 1.64%. All assay components are diluted in phosphorylation buffer (20 mm MOPS, 10 mM MgCl2, 1 mM EDTA, 0.015% Brij-35, 0.1 mg/ml BSA, 0.0025% Beta-Mercaptoethanol). The recombinant enzyme is added to the assay plate containing test compound and the reaction is initiated with a substrate solution containing a final concentration of 0.1 mg/ml PGT, 30 uM ATP, and 0.008 mCi/ml ^33P-gammaATP (3000 Ci/mmol)(Perkin Elmer™) After a 1 hour incubation at 30° C., the reaction is terminated with 10% TCA and incubated at 4° C. for 1 hour. The reaction is filtered onto a Unifilter® GF/C™ filter plate that has been presoaked with 0.1 M NaPyrophosphate. Microscint-20 is then added to the dried filter plate and the captured ^33P-phosphorylated PGT is quantitated on a microscintillation plate counter (TopCount·NXT™).

TrkA = molecular target: T2, TrkA (Homo sapiens, UniProt P04629); assay: TrkA tyrosine kinase inhibition, recombinant enzyme, polyGluTyr phosphorylation (33P-ATP filter assay); type: biochemical; settings: kinase domain of human TrkA, His-fusion; 0.1 mg/ml PGT, 30 uM ATP, 1 hour at 30° C.
T2 construct: The kinase domain of the human TrkA receptor is expressed in Sf9 insect cells as a histidine (His)-fusion protein; His; made in house; host or cells: Sf9 insect cells (baculovirus)
T2 sequence (P04629 510-781 limits assumed): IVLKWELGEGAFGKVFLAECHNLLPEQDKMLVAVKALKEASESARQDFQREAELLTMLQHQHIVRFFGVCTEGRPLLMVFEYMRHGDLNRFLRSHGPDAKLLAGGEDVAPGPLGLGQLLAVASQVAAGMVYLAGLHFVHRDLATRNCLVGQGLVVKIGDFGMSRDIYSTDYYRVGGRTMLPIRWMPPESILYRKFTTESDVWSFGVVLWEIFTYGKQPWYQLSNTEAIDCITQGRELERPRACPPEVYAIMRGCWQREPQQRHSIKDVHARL
Source text: The ability of compounds of the invention to inhibit tyrosine kinase activity of TrkA may be measured using a recombinant enzyme in an assay that measures the ability of compounds to inhibit the phosphorylation of the exogenous substrate, polyGluTyr (PGT, 4:1). The kinase domain of the human TrkA receptor is expressed in Sf9 insect cells as a histidine (His)-fusion protein using a baculovirus expression system. The protein is purified from the lysates of these cells using an Ni-NTA affinity column. After the recombinant enzyme is purified, it is activated by incubation with cold ATP. The enzyme assay is performed in a 96-well plate. Test compounds are first dissolved in dimethylsulfoxide (DMSO) and then serially-diluted in a 96-well plate. The serially-diluted compounds are transferred to the 96-well assay plate so that the final concentration of DMSO in the enzyme assay is 1.64%. All assay components are diluted in phosphorylation buffer (20 mm MOPS, 10 mM MgCl2, 1 mM EDTA, 0.015% Brij-35, 0.1 mg/ml BSA, 0.0025% Beta-Mercaptoethanol). The recombinant enzyme is added to the assay plate containing test compound and the reaction is initiated with a substrate solution containing a final concentration of 0.1 mg/ml PGT, 30 uM ATP, and 0.008 mCi/ml ^33P-gammaATP (3000 Ci/mmol). After a 1 hour incubation at 30° C., the reaction is terminated with 10% TCA and incubated at 4° C. for 1 hour. The reaction is filtered onto a Unifilter® GF/C™ filter plate that has been presoaked with 0.1 M NaPyrophosphate. Microscint-20 is then added to the dried filter plate and the captured ^33P-phosphorylated PGT is quantitated on a microscintillation plate counter (TopCount·NXT™).

T1 sequence (Q16620 510-822): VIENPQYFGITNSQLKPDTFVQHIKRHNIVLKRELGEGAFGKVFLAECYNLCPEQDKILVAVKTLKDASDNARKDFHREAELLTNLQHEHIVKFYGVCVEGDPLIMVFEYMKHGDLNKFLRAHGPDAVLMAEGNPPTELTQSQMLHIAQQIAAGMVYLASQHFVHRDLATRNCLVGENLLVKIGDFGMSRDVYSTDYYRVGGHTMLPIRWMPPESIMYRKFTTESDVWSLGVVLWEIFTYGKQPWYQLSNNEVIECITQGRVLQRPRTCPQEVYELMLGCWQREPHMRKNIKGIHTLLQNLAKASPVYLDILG

| Structure (SMILES) | IC50 (TrkB) [nM] | IC50 (TrkA) [nM] |
| --- | --- | --- |
| CC(C)c1cc(C(=O)c2cccc(NC(=O)Nc3ccc(OCc4ccccc4)cc3)c2)c2c(N)ncnn12 [Example 33, 1-{3-[(4-amino-7-isopropyl-pyrrolo[2,1-f][1,2,4]triazin-5-yl)carbonyl]phenyl}-3-[4-(benzyloxy)phenyl]urea] | 1 | 2 |
| CC(C)c1cc(C(=O)c2cccc(NC(=O)Nc3ccc4ccccc4c3)c2)c2c(N)ncnn12 [Example 46, 1-{3-[(4-amino-7-isopropyl-pyrrolo[2,1-f][1,2,4]triazin-5-yl)carbonyl]phenyl}-3-(2-naphthyl)urea] | 1 | < 1 |
| CC(C)c1cc(C(=O)c2cccc(NC(=O)NCCCc3ccccc3)c2)c2c(N)ncnn12 [Example 61, 1-{3-[(4-amino-7-isopropyl-pyrrolo[2,1-f][1,2,4]triazin-5-yl)carbonyl]phenyl}-3-(3-phenylpropyl)urea] | 8 | 21 |
| CN(C)CCCc1cc(C(=O)c2cccc(NC(=O)Nc3ccc(Cl)cc3Cl)c2)c2c(N)ncnn12 [Example 67, 1-[3-({4-amino-7-[3-(dimethylamino)propyl]Pyrrolo[2,1-f][1,2,4]triazin-5-yl}carbonyl)phenyl]-3-(2,4-dichlorophenyl)urea] | 1 | 3 |
| CC(C)c1cc(C(=O)c2cccc(NC(=O)Nc3ccc(Cl)cc3Cl)c2)c2c(N)ncnn12 [Example 1, 1-{3-[(4-amino-7-isopropylpyrrolo [2,1-f][1,2,4]triazin-5-yl)carbonyl]phenyl}-3-(2,4-dichlorophenyl)urea] | 1 |  |

The remaining lines, values ahead:

| IC50 (TrkB) [nM] | IC50 (TrkA) [nM] | Structure (SMILES) |
| --- | --- | --- |
| < 1 | 2 | CC(C)c1cc(C(=O)c2cccc(NC(=O)Nc3ccccc3)c2)c2c(N)ncnn12 [Example 9, 1-{3-[(4-amino-7-isopropyl-pyrrolo[2,1-f][1,2,4]triazin-5-yl)carbonyl]phenyl}-3-phenylurea] |
| 36 | 17 | CC(C)c1cc(C(=O)c2cccc(NC(=O)NCC3CCCCC3)c2)c2c(N)ncnn12 [Example 37, 1-{3-[(4-amino-7-isopropyl-pyrrolo[2,1-f][1,2,4]triazin-5-yl)carbonyl]phenyl}-3-(cyclohexylmethyl)urea] |
| 15 | 9 | CC(C)c1cc(C(=O)c2cccc(NC(=O)Nc3ccncc3)c2)c2c(N)ncnn12 [Example 63, 1-{3-[(4-amino-7-isopropyl-pyrrolo[2,1-f][1,2,4]triazin-5-yl)carbonyl]phenyl}-3-pyridin-4-ylurea] |
